Here are results for three compounds from US9145376B2, “Quinazolinone inhibitors of dynein” (The Rockefeller University, priority 2011, dated 2015).

The target in assay [1] is T1, K560, N-terminal fragment of human conventional kinesin (kinesin-1) (Homo sapiens, UniProt P33176).
T1 construct: K560, a 560-amino acid N-terminal fragment of human conventional kinesin (kinesin-1); His-tag (C); made in house; host or cells: bacteria
T1 sequence (P33176 1-560): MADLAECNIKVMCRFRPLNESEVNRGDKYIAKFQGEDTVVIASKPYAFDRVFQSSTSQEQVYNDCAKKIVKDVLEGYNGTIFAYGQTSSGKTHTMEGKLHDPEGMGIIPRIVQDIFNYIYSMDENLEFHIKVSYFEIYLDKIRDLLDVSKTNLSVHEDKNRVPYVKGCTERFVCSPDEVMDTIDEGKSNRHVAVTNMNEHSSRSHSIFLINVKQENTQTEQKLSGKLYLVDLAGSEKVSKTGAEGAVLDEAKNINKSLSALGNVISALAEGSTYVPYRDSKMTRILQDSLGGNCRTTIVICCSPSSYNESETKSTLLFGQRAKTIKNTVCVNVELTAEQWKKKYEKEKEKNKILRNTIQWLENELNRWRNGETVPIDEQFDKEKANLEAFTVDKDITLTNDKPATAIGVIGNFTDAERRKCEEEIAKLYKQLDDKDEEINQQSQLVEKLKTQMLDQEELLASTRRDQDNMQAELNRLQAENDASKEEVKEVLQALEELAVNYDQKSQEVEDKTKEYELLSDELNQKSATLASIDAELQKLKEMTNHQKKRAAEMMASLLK
In words: Microtubule surface gliding assay, K560/kinesin-1. The note with it: 100 μM. It is filed as biochemical. As to the method: Cytoplasmic dynein was purified from bovine brains as described by Bingham et al. [Methods Enzymol. 298, 171 (1998)]. K560, a 560-amino acid N-terminal fragment of human conventional kinesin (kinesin-1) with a C-terminal His-tag, was expressed in bacteria and purified as described by Woehlke et al., [Cell 90, 207 (1997)]. Motility assays were performed on a Zeiss Axiovert 200M wide-field microscope equipped with a Zeiss 100×/1.45 NA α-Plan-Fluar objective. Data were captured with an EM-CCD camera (iXon DU-897, Andor Technology) with a 0.3-second exposure time and frame rate of 0.5 second^−1. Microtubule gliding assays were performed as described by Kapoor and Mitchison [Proc. Natl. Acad. Sci. U.S.A. 96, 9106 (1999)] with some modifications. An approximately 6 μL flow chamber was filled with motor protein (100 μg/mL dynein or 50 μg/mL K560) in motor dilution buffer (80 mM Pipes, 1 mM EGTA, 2 mM MgCl2, 2 mM DTT, 50 μM ATP, pH 6.8 with KOH). […] After allowing the microtubules to bind to the surface for 5 minutes, the gliding microtubules were visualized by time-lapse fluorescence microscopy. Velocities were measured by kymography using Metamorph software (Molecular Devices), and the velocity for each microtubule was determined from the total distance during the time observed.

Assay [2] relates to primary cilia of Shh-EGFP cells. Nature of the assay: Quantitative assessment of ciliogenesis (Arl13b staining, cilia size). In kind it is cell-based. The note with it: 24 hours.
Another assay concerns Xenopus melanophores. Nature of the assay: Melanosome aggregation assay. It is filed as cell-based. The note with it: for melanosome aggregation: melatonin-induced aggregation. The source says: Another cytoplasmic dynein 1-dependent process is the aggregation of melanin-containing vesicles in pigment cells, the mechanism by which certain organisms adapt their coloration in response to environmental cues. For example, cytoplasmic dynein 1 transports melanosomes toward the center of Xenopus melanophores stimulated with the small-molecule melatonin, counterbalancing the kinesin-2- and myosin-V-driven dispersal of these pigment granules toward the cell periphery in response to melanocyte-stimulating hormone (MSH). To determine if melanosome trafficking is sensitive to the ciliobrevins, we cultured Xenopus melanophores with MSH to uniformly disperse their melanosomes and then treated them with melatonin and various concentrations of test compounds.
Immortalized Xenopus melanophores were cultured in 0.7×L15 medium supplemented with 10% fetal bovine serum, 30 mg/L L-glutamine, and 5 mg/L insulin. The cell were cultured on poly-D-lysine-coated coverslips in 12-well plates for 12 to 24 hours prior to the melanosome aggregation assay. On the day of the experiment, the melanophores were cultured in serum-free medium for 30 minutes, stimulated with 100 nM melanocyte-stimulating hormone (MSH) to uniformly disperse the melanosomes, and then incubated with medium containing individual compounds or DMSO for 10 minutes. Melanosome aggregation was then induced by treating the cells with 10 nM melatonin in the presence of the test compound. The melanophores were either imaged immediately by time-lapse microscopy or fixed after 30 minutes with 0.7×PBS containing 4% paraformaldehyde.
The cells were then washed several times with medium containing melatonin alone and imaged.

On to `N#C/C(C(=O)c1ccc(Cl)cc1Cl)=C1\NC(=O)c2ccccc2N1` [Example 1, 3-(2,4-dichlorophenyl)-3-oxo-2-(4-oxo-3,4-dihydroquinazolin-2(1H)-ylidene)propanenitrile], for which the K560/kinesin-1-dependent microtubule gliding entry in assay [1] is reported as “Neither ciliobrevin significantly affected”. In assay [2], the “cilia size in response to increasing concentration (FIG. 1)” value is reported as “dose-dependent decrease in cilia size”.
Turning to `N#C/C(C(=O)c1ccccc1)=C1\NC(=O)c2ccccc2N1` [Example 16, 3-oxo-2-(4-oxo-3,4-dihydroquinazolin-2(1H)-ylidene)-3-phenylpropanenitrile], the melanosome aggregation entry with Xenopus melanophores (concentrations up to 40 μM) was “no discernible effect”. The “cilia size in response to increasing concentration (FIG. 1)” value in assay [2] was “no decrease in cilia size”.
With `N#C/C(C(=O)c1ccc(Cl)cc1Cl)=C1\NC(=O)c2ccc(Cl)cc2N1` [Example 31, 2-(7-chloro-4-oxo-3,4-dihydroquinazolin-2(1H)-ylidene)-3-(2,4-dichlorophenyl)-3-oxo-propanenitrile], in the assay on Xenopus melanophores (10 μM dose), the melanosome aggregation entry is recorded as “significantly inhibited melanosome aggregation”. Further, the “reversibility of effect on melanosome aggregation (washout)” value with Xenopus melanophores (washout into medium containing melatonin alone) was “completely reversible”. For the same compound, the K560/kinesin-1-dependent microtubule gliding entry in assay [1] is listed as “Neither ciliobrevin significantly affected”.
